# Assay results as given in US7208485B2, “Crystalline forms of halobetasol propionate” (Chemagis Ltd., priority 2003, dated 2007).
# Assay: Thermal solid-state stability / phase transition on heating (hot-stage microscopy, DSC)
# Type: physicochemical
# Settings: for temperature of solid-solid phase transition upon heating: heating at ambient pressure, observed by hot-stage microscopy and as DSC peak
# Experimental: Differential scanning calorimetry experiments were run on DuPont instruments model DSC 910, with software version 4.1C. Samples were analyzed inside 40 μl crimped Aluminum pan. Heating rate for all samples was 5° C./min. Since the melting of halobetasol propionate is accompanied by decomposition, the heating process was stopped slightly after the beginning of melting, in order to avoid damage to the measuring apparatus caused by decomposition products.
temperature of solid-solid phase transition upon heating,SMILES,other results
90 °C,"CCC(=O)O[C@]1(C(=O)CCl)[C@@H](C)CC2[C@@H]3C[C@H](F)C4=CC(=O)C=C[C@]4(C)[C@@]3(F)[C@@H](O)C[C@@]21C (some centres unmarked) [Form I, halobetasol propionate Form I]",–
160 °C,"CCC(=O)O[C@]1(C(=O)CCl)[C@@H](C)CC2[C@@H]3C[C@H](F)C4=CC(=O)C=C[C@]4(C)[C@@]3(F)[C@@H](O)C[C@@]21C (some centres unmarked) [Form III, halobetasol propionate Form III]",–
150–170 °C,"CCC(=O)O[C@]1(C(=O)CCl)[C@@H](C)CC2[C@@H]3C[C@H](F)C4=CC(=O)C=C[C@]4(C)[C@@]3(F)[C@@H](O)C[C@@]21C (some centres unmarked) [Form VI, halobetasol propionate Form VI]",–

# The remaining lines, values behind:
SMILES,temperature of solid-solid phase transition upon heating,other results
"CCC(=O)O[C@]1(C(=O)CCl)[C@@H](C)CC2[C@@H]3C[C@H](F)C4=CC(=O)C=C[C@]4(C)[C@@]3(F)[C@@H](O)C[C@@]21C (some centres unmarked) [Form IV, halobetasol propionate Form IV]",120–130 °C,temperature of solid-solid phase transition under vacuum (heating under vacuum for about an hour or two): about 60 °C
"CCC(=O)O[C@]1(C(=O)CCl)[C@@H](C)CC2[C@@H]3C[C@H](F)C4=CC(=O)C=C[C@]4(C)[C@@]3(F)[C@@H](O)C[C@@]21C (some centres unmarked) [Form V, halobetasol propionate Form V]",about 90 °C,–
"CCC(=O)O[C@]1(C(=O)CCl)[C@@H](C)CC2[C@@H]3C[C@H](F)C4=CC(=O)C=C[C@]4(C)[C@@]3(F)[C@@H](O)C[C@@]21C (some centres unmarked) [Form II, halobetasol propionate Form II]",–,temperature to which heated without converting to another crystalline or amorphous form and without significant decomposition (heating): ≤ 200 °C; transitions upon heating to melting temperature (hot stage microscopy): no detectable transitions
